Kb and pKb data for 24 molecules are collected here from ChEMBL document CHEMBL3580546, “Structure-activity study of N-((trans)-4-(2-(7-cyano-3,4-dihydroisoquinolin-2(1H)-yl)ethyl)cyclohexyl)-1H-indole-2-carboxamide (SB269652), a bitopic ligand that acts as a negative allosteric modulator of the dopamine D2 receptor” (J Med Chem, 2015).

Broadly, the pKb is the Kb on a negative log10 scale, so that one unit is a factor of ten.

The target of experiment [1] is D(2) dopamine receptor (Homo sapiens) (UniProt P14416). The experiment in a line: Binding affinity to human dopamine D2 receptor.
Sequence of D(2) dopamine receptor (Homo sapiens) (P14416 whole entry): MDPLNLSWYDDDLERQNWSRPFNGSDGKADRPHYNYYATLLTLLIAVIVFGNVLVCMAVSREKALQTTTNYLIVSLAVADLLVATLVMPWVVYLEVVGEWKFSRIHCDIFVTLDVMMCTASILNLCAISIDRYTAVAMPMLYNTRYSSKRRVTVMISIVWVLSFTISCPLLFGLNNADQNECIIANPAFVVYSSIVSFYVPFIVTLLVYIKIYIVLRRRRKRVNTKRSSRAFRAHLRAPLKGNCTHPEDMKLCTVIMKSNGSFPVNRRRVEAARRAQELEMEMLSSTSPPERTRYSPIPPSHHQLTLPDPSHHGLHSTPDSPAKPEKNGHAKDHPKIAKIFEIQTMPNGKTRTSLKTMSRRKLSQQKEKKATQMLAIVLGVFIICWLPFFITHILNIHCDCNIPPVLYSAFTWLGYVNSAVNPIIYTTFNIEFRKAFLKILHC
Experiment [2] shares this target. The experiment can be described thus: Displacement of [3H]raclopride from wild type human dopamine D2L receptor expressed in FlpIn CHO cell membrane assessed as equilibrium dissociation constant after 3 hrs by MicroBeta counting analysis. Format: cell membranes.
Experiment [3] shares this target. The experiment in a line: Negative allosteric modulator activity at wild type human dopamine D2L receptor expressed in FlpIn CHO […] assessed as ERK1/2 phosphorylation measured as equilibrium dissociation constant after 30 mins. Format: cell-based.

As for `N#Cc1ccc2c(c1)CNCC2`, the Kb in experiment [1] came to 2500 nM.

As to `O=C(N[C@H]1CC[C@H](CCN2CCc3ccc(F)cc3C2)CC1)c1cc2ccccc2[nH]1`, in experiment [2], the Kb is 245 nM and the pKb is 6.61. Moreover, in experiment [3], the Kb worked out at 1050 nM and the pKb came out at 5.98.

Regarding `N#Cc1ccc2c(c1)CN(CCCCCCNC(=O)c1cc3ccccc3[nH]1)CC2`, in experiment [2], the Kb worked out at 269 nM and the negative-log Kb (pKb) came to 6.57. In experiment [3], the Kb was found to be 30.1 nM and the negative logarithm of the Kb (pKb) came out at 7.52.

Take `N#Cc1ccc2c(c1)CN(CCCCCNC(=O)c1cc3ccccc3[nH]1)CC2`: in experiment [2], the Kb is 479 nM and the negative logarithm of the Kb (pKb) was found to be 6.32. Besides, in experiment [3], the Kb is 132 nM and the negative-log Kb (pKb) came to 6.88.

On to `O=C(N[C@H]1CC[C@H](CCN2CCCc3ccccc3C2)CC1)c1cc2ccccc2[nH]1`, for which, in experiment [2], the Kb was 2510 nM and the pKb was 5.6. In addition, in experiment [3], the Kb worked out at 2570 nM and the pKb was 5.59.

`CN(C(=O)c1cc2ccccc2[nH]1)[C@H]1CC[C@H](CCN2CCc3ccc(C#N)cc3C2)CC1`: in experiment [2], the Kb turned out to be 117 nM and the pKb was 6.93. Moreover, in experiment [3], the Kb was found to be 91.2 nM and the pKb came to 7.04.

`N#Cc1ccc2c(c1)CN(CC[C@H]1CC[C@H](NC(=O)C3=Cc4ccccc4C3)CC1)CC2`: in experiment [2], the Kb was determined as 151 nM and the pKb stood at 6.82. Moreover, in experiment [3], the Kb was determined as 22.9 nM and the negative-log Kb (pKb) was 7.64.

Turning to `Cn1c(C(=O)N[C@H]2CC[C@H](CCN3CCc4ccc(C#N)cc4C3)CC2)cc2ccccc21`, in experiment [2], the Kb was determined as 151 nM and the pKb turned out to be 6.82. Besides, in experiment [3], the Kb came to 72.4 nM and the pKb is 7.14.

For the molecule `O=C(N[C@H]1CC[C@H](CCN2CCc3sccc3C2)CC1)c1cc2ccccc2[nH]1`, in experiment [2], the Kb turned out to be 2240 nM and the pKb turned out to be 5.65. Besides, in experiment [3], the Kb was found to be 339 nM and the pKb came out at 6.47.

As for `N#Cc1ccc2c(c1)CN(CC[C@H]1CC[C@H](NC(=O)c3cc4cccnc4[nH]3)CC1)CC2`, in experiment [2], the Kb was found to be 45.7 nM and the pKb was determined as 7.34. Moreover, in experiment [3], the Kb stood at 23.4 nM and the negative logarithm of the Kb (pKb) was determined as 7.63.

For the molecule `O=C(N[C@H]1CC[C@H](CCN2CCc3ccc(Cl)cc3C2)CC1)c1cc2ccccc2[nH]1`, in experiment [2], the Kb was determined as 148 nM and the pKb amounted to 6.83. In experiment [3], the Kb came to 2090 nM and the negative-log Kb (pKb) turned out to be 5.68.

Turning to `O=C(N[C@H]1CC[C@H](CCN2CCc3ccc(Br)cc3C2)CC1)c1cc2ccccc2[nH]1`, in experiment [2], the Kb came out at 170 nM and the pKb was determined as 6.77. In experiment [3], the Kb came out at 138 nM and the pKb came out at 6.86.

Turning to `N#Cc1ccc2c(c1)CN(CCCNC(=O)c1cc3ccccc3[nH]1)CC2`, in experiment [2], the Kb came out at 372 nM and the pKb is 6.43. Besides, in experiment [3], the Kb was determined as 138 nM and the pKb was determined as 6.86.

As to `N#Cc1ccc2c(c1)CN(CC[C@H]1CC[C@H](NC(=O)c3ccc[nH]3)CC1)CC2`, in experiment [2], the Kb amounted to 57.5 nM and the negative logarithm of the Kb (pKb) came to 7.24. Further, in experiment [3], the Kb amounted to 3.31 nM and the pKb is 8.48.

`O=C(N[C@H]1CC[C@H](CCN2CCc3ccccc3C2)CC1)c1cc2ccccc2[nH]1`: in experiment [2], the Kb amounted to 295 nM and the negative logarithm of the Kb (pKb) turned out to be 6.53. In experiment [3], the Kb is 87 nM and the pKb turned out to be 7.06.

As to `N#Cc1ccc2c(c1)CN(CC[C@H]1CC[C@H](NC(=O)c3nc4ccccc4[nH]3)CC1)CC2`, the figures for the Kb in experiment [2] and in experiment [3] were 81.3 nM and 174 nM, respectively. Moreover, the pKb was found to be 7.09 in experiment [2] and 6.76 in experiment [3].

`N#Cc1ccc2c(c1)CN(CC[C@H]1CC[C@H](NC(=O)[C@H]3CCCN3)CC1)CC2`: in experiment [2], the Kb stood at 363 nM and the pKb amounted to 6.74. In experiment [3], the Kb is 45.7 nM and the pKb came to 7.34.

In the case of `O=C(N[C@H]1CC[C@H](CCN2CCc3ccc(C(F)(F)F)cc3C2)CC1)c1cc2ccccc2[nH]1`, in experiment [2], the Kb came to 759 nM and the negative-log Kb (pKb) came out at 6.12. Moreover, in experiment [3], the Kb was 891 nM and the pKb amounted to 6.05.

As to `N#Cc1ccc2c(c1)CN(CC[C@H]1CC[C@H](NC(=O)c3nc4ccccc4o3)CC1)CC2`, the Kb is 263 nM in experiment [2] and 18.2 nM in experiment [3]. The pKb in experiment [2] was found to be 6.58; in experiment [3], 7.74.

For `N#Cc1ccc2c(c1)CN(CC[C@H]1CC[C@H](NC(=O)c3cc4ccccc4o3)CC1)CC2`, in experiment [2], the Kb is 282 nM and the pKb is 6.55. In addition, in experiment [3], the Kb turned out to be 18.2 nM and the pKb amounted to 7.74.

In the case of `O=C(N[C@H]1CC[C@H](CCN2CCN(c3cccc(Cl)c3Cl)CC2)CC1)c1cc2ccccc2[nH]1`, in experiment [2], the Kb amounted to 5.25 nM and the pKb worked out at 8.28. For the same molecule, in experiment [3], the Kb turned out to be 1.38 nM and the negative logarithm of the Kb (pKb) was 8.86.

On to `N#Cc1ccc2c(c1)CN(CC[C@H]1CC[C@H](NC(=O)[C@@H]3CCCN3)CC1)CC2`, for which, in experiment [2], the Kb turned out to be 23.4 nM and the pKb came out at 7.63. For the same molecule, in experiment [3], the Kb came to 27.5 nM and the negative logarithm of the Kb (pKb) worked out at 7.56.

For the molecule `N#Cc1ccc2c(c1)CN(CCCCNC(=O)c1cc3ccccc3[nH]1)CC2`, the values for the Kb in experiment [2] and in experiment [3] were 158 nM and 81.2 nM, respectively. The results for the pKb in experiment [2] and in experiment [3] were 6.8 and 7.09, respectively.

As for `COc1ccccc1N1CCN(CC[C@H]2CC[C@H](NC(=O)c3cc4ccccc4[nH]3)CC2)CC1`, in experiment [2], the Kb was found to be 3.4 nM and the pKb is 8.41. For the same molecule, in experiment [3], the Kb worked out at 0.257 nM and the pKb turned out to be 9.59.
